These results are taken from US8551937B2, “Peptide having an extending action for half-life of object peptide in plasma” (priority 2008, dated 2013).

Where a SMILES comes first, the peptide text is derived from it. Bridges are numbered along the chain shown (N, C = ends).

The nature of one data set: in vivo. The conditions noted are these: male, SD, rat, iv, 20 nmol/kg.
The nature of data set [1]: CNP immunoreactivity concentration in plasma after administration to rats (competitive RIA), pharmacokinetic parameters (Example 2). The class given is in vivo, rat. The conditions noted are these: rat, plasma, 0.1 mg/kg, male rats, N = 3, mean ± SD; for half-life: read-out: T½; for C0: extrapolated value. The procedure: Pharmacokinetic parameters were calculated from the resulting changes in immunoreactivity concentrations in plasma. At that time, WinNonlin Professional Ver. 4.0.1 (manufactured by Pharsight Corporation, U.S.A.) was used as the analytical software. Method for the calculation of each parameter is mentioned as follows.
Concentration at time 0 (C0; extrapolated value, ng/mL), area under the curve for concentration in plasma vs. time (AUC; ng.min/mL) and quenching half-life (T½; minute(s)) were calculated as follows. C0 was calculated as a value at time by means of extrapolation from the changes in immunoreactivity concentration in plasma at each blood collection period. AUC was calculated by a trapezoidal method using the immunoreactivity concentrations in plasma at all measuring points (t) and an extrapolated value until the infinitive time was determined. T½ was calculated by means of a least-squares method from the inclination of a straight line connecting several points in a disappearing phase of the immunoreactivity concentration in plasma. In the case of a subcutaneous administration, C0 was not determined but the maximum concentration in plasma (Cmax; ng/mL) and the time reaching the maximum concentration in plasma (Tmax; min) were determined.
Changes in CNP immunoreactivity concentration in plasma of native CNP-22 and chimeric peptide (chimeric CNP) where a half-life-extension peptide was added to CNP were investigated.
The experiment was conducted in the same manner as in Example 1 that rats where polyethylene tube was previously inserted into thigh artery were used under an anesthetizing condition with Nembutal and male SD strain rats of 7 weeks age (purchased from Nippon Charles River) were used where one group comprised 3 rats. […] At that time, a rabbit polyclonal antibody (#2) recognizing a ring part of native CNP-22 was used as an antibody and ^125I-[Tyr^0] CNP was used as a labeling compound. Pharmacokinetic analysis was carried out by the same method as in Example 1.

The target in data set [2] is T1, neutral endopeptidase (NEP) (Homo sapiens, UniProt P08473).
T1 construct: purchased R&D Systems, Inc., U.S.A
Nature of the data set: Resistance to peptidase: stability to hNEP (HPLC residual rate). The format is in vitro ADME. The settings on record: human, isolated enzyme neprilysin, pH 6.5. Here is the method: The experiment was conducted in N=2 for each sample. Native CNP-22, chimeric CNP (A, B) (structure mentioned already; final concentration: 0.5 μg/mL) and 100 μL of reaction solution (medium: 20 mM MES, pH 6.5) of human type recombinant neutral endopeptidase (hNEP, manufactured by R&D Systems, Inc., U.S.A.) were prepared. […] Distilled water (100 μL) was added to the sample after boiling followed by well mixing and 50 μL thereof was analyzed in a water-acetonitrile system using a high-performance liquid chromatography system LC-10A (manufactured by Shimadzu). The analytical data were analyzed by a Chromato-Pack (CRA-10A, manufactured by Shimadzu) and area of the peak zone of unchanged substance was calculated. The area of average zone of unchanged substance when made to react at 37° C. was divided by the area of average zone of the boiled sample to calculate the residual rate of the unchanged substance after 1 hour.

In a further data set the target is T2, NEP (Rattus norvegicus, UniProt P07861).
T2 construct: male SD strain rats of 7 weeks age (Nippon Charles River; body weight: ca. 250 g) were used; from tissue; host or cells: whole animal: male SD rats (Nippon Charles River), in vivo
T2 sequence (P07861 1-750): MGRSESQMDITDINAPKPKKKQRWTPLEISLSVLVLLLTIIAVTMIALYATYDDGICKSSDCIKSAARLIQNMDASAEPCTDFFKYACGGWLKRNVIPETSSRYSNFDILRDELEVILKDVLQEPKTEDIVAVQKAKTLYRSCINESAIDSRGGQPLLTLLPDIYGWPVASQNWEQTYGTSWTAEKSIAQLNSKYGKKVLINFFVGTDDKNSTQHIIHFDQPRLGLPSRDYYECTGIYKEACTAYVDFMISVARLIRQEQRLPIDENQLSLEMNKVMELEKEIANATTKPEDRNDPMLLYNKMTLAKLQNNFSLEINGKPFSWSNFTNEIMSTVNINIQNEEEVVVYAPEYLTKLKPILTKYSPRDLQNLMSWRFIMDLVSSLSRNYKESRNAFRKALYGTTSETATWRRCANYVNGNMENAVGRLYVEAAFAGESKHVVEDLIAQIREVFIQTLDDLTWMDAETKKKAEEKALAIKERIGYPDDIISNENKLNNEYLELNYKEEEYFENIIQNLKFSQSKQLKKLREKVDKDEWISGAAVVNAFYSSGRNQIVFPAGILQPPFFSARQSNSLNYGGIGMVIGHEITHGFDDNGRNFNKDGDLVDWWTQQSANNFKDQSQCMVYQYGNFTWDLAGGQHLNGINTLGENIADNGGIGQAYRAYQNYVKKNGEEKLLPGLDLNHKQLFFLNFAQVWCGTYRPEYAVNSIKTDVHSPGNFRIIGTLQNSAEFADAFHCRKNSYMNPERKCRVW
The data set can be described thus: NEP resistance in vivo: influence of NEP inhibitor on pharmacokinetic parameters after intravenous administration. The conditions noted are these: rat, in vivo. Here is the method:
Further, NEP resistance in vivo of the native CNP-22 and chimeric CNP (B) was evaluated using the effect by the joint use with an NEP inhibitor affecting on changes in CNP immunoreactivity concentration in plasma after the intravenous administration as an index. This test was also carried out using rats into which a polyethylene tube (PE-50, manufactured by Clay […].) was inserted into thigh artery for collection of blood and rats into which a polyethylene tube (PE-10, manufactured by Clay […].) was inserted into thigh vein for administration of an NEP inhibitor under an anesthetizing condition using Nembutal. As a test system, male SD strain rats of 7 weeks age (Nippon Charles River; body weight: ca. 250 g) were used for the experiment where one group comprised 3 rats. […] Time for the administration was from 10 minutes before the administration of the native CNP-22 or the chimeric CNP (B) to completion of blood collection which was 60 minutes after the administration. The native CNP-22 and the chimeric CNP (B) each was administered into the tail vein in a dose of 20 μg/kg and the blood before starting the administration of NEP inhibitor (-10 minutes), before the administration of CNP (0 minute) and until after 60 minutes from the administration was collected by a thigh artery cannula. After a stabilizer and an anticoagulant were added to the collected blood, it was centrifuged to give plasma and the immunoreactivity concentration in the plasma was measured by the above-mentioned competitive RIA. The pharmacokinetic analysis was carried out by the same method as in Example 1.

T1 sequence (P08473 whole entry): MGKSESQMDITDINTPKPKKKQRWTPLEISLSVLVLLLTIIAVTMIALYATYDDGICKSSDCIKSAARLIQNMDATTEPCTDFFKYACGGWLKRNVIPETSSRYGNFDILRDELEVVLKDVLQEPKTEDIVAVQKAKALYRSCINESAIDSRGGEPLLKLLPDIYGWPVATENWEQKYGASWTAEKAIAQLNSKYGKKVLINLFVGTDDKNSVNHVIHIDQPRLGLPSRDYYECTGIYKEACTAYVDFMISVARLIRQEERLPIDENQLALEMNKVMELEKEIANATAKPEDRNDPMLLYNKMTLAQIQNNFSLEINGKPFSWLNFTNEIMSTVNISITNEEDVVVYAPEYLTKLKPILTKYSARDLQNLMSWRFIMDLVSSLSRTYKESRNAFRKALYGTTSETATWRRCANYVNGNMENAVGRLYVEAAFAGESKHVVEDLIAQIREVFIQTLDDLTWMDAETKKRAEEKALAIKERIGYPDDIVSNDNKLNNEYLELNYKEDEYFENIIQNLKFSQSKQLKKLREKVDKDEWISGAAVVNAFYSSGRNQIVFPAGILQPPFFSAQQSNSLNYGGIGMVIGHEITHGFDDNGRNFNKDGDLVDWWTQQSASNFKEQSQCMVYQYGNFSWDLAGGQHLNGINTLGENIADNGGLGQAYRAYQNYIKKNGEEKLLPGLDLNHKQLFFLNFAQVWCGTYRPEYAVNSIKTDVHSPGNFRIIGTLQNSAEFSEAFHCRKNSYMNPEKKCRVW

In the data set “in vivo”, `CC[C@H](C)[C@@H]1NC(=O)[C@H](CCCNC(=N)N)NC(=O)[C@H](CC(=O)O)NC(=O)[C@H](CC(C)C)NC(=O)[C@H](CCCCN)NC(=O)[C@H](CC(C)C)NC(=O)CNC(=O)[C@H](Cc2ccccc2)NC(=O)[C@@H](NC(=O)CNC(=O)[C@H](CCCCN)NC(=O)[C@H](CO)NC(=O)[C@H](CC(C)C)NC(=O)CN)CSSC[C@@H](C(=O)N[C@H](C(=O)N[C@@H](CCC(N)=O)C(=O)N[C@@H](CCC(N)=O)C(=O)N[C@@H](CCCNC(=N)N)C(=O)N[C@@H](CCCCN)C(=O)N[C@@H](CC(=O)O)C(=O)N[C@@H](CO)C(=O)N[C@@H](CCCCN)C(=O)N[C@@H](CCCCN)C(=O)N2CCC[C@H]2C(=O)N2CCC[C@H]2C(=O)N[C@@H](C)C(=O)N[C@@H](CCCCN)C(=O)N[C@@H](CC(C)C)C(=O)N[C@@H](CCC(N)=O)C(=O)N2CCC[C@H]2C(=O)N[C@@H](CCCNC(=N)N)C(=O)O)C(C)C)NC(=O)CNC(=O)[C@H](CC(C)C)NC(=O)CNC(=O)[C@H](CO)NC(=O)[C@H](CCSC)NC(=O)[C@H](CO)NC(=O)CNC1=O` [Chimeric CNP (J)] (H-GLSKGCFGLKLDRIGSMSGLGCVQQRKDSKKPPAKLQPR-OH; disulfide 6-22; N-terminus and C-terminus assumed) gave a half-life of 31.2 min.

The term AUC(0-inf) denotes the area under the concentration-time curve extrapolated to infinity. A high value points to high exposure. By Cmax is commonly meant the maximum level reached in the sampled fluid or tissue. The term Tmax denotes the time from dosing to the highest level. Usually fraction remaining stands for the share of the starting amount still present when the sample was taken. Lower therefore signals more turnover. In the case of `CC[C@H](C)[C@@H]1NC(=O)[C@H](CCCNC(=N)N)NC(=O)[C@H](CC(=O)O)NC(=O)[C@H](CC(C)C)NC(=O)[C@H](CCCCN)NC(=O)[C@H](CC(C)C)NC(=O)CNC(=O)[C@H](Cc2ccccc2)NC(=O)[C@@H](N)CSSC[C@@H](C(=O)N[C@H](C(=O)N[C@@H](CCC(N)=O)C(=O)N[C@@H](CCC(N)=O)C(=O)N[C@@H](CCCNC(=N)N)C(=O)N[C@@H](CCCCN)C(=O)N[C@@H](CCC(=O)O)C(=O)N[C@@H](CO)C(=O)N[C@@H](CCCCN)C(=O)N[C@@H](CCCCN)C(=O)N2CCC[C@H]2C(=O)N2CCC[C@H]2C(=O)N[C@@H](C)C(=O)N[C@@H](CCCCN)C(=O)N[C@@H](CC(C)C)C(=O)N[C@@H](CCC(N)=O)C(=O)N2CCC[C@H]2C(=O)N[C@@H](CCCNC(=N)N)C(=O)O)C(C)C)NC(=O)CNC(=O)[C@H](CC(C)C)NC(=O)CNC(=O)[C@H](CO)NC(=O)[C@H](CCSC)NC(=O)[C@H](CO)NC(=O)CNC1=O` [Chimeric CNP (B)] (H-CFGLKLDRIGSMSGLGCVQQRKESKKPPAKLQPR-OH; disulfide 1-17; N-terminus and C-terminus assumed), in data set [1] (sc, subcutaneous), the AUC(0-inf) is 28.1 ng·h/mL, the Cmax was determined as 32.8 ± 7.9 ng/mL, the Tmax was 10 min and the half-life came to 24 ± 9.7 min. Besides, in data set [1] (intravenous), the area under the curve AUC(0-inf) is 153 ng·h/mL, the C0 is 1470 ± 749 ng/mL and the half-life stood at 36.2 ± 2.3 min. Moreover, the fraction remaining at 1 h, 0.5 μg/mL in data set [2] was found to be 83.8%. Also, at NEP (male, SD, iv, 0.02 mg/kg), the “AUC0→∞” value came out at 1342 ± 168 ng·min/mL, the C0 is 203 ± 71 ng/mL and the T½ is given as 12.7 ± 1.2 min. On NEP (male, SD, iv, 0.02 mg/kg, AUC0→∞), the AUC(0-inf) was 24.5 ng·h/mL. The C0 on NEP (male, SD, iv, 0.02 mg/kg, C0) is 253 ± 15 ng/mL. The same molecule showed a half-life at NEP (male, SD, iv, 0.02 mg/kg, T½) of 14.9 ± 3.1 min. Besides, on NEP, the “decomposition by NEP in the body of the rat” value is “hardly decomposed by NEP”.

Consider `CC[C@H](C)[C@@H]1NC(=O)[C@H](CCCNC(=N)N)NC(=O)[C@H](CC(=O)O)NC(=O)[C@H](CC(C)C)NC(=O)[C@H](CCCCN)NC(=O)[C@H](CC(C)C)NC(=O)CNC(=O)[C@H](Cc2ccccc2)NC(=O)[C@@H](NC(=O)[C@@H](NC(=O)[C@H](CCC(N)=O)NC(=O)[C@H](CCC(N)=O)NC(=O)[C@H](CCCNC(=N)N)NC(=O)[C@H](CCCCN)NC(=O)[C@H](CCC(=O)O)NC(=O)[C@H](CO)NC(=O)[C@H](CCCCN)NC(=O)[C@H](CCCCN)NC(=O)[C@@H]2CCCN2C(=O)[C@@H]2CCCN2C(=O)[C@H](C)NC(=O)[C@H](CCCCN)NC(=O)[C@H](CC(C)C)NC(=O)[C@H](CCC(N)=O)NC(=O)[C@@H]2CCCN2C(=O)[C@@H](N)CCCNC(=N)N)C(C)C)CSSC[C@@H](C(=O)O)NC(=O)CNC(=O)[C@H](CC(C)C)NC(=O)CNC(=O)[C@H](CO)NC(=O)[C@H](CCSC)NC(=O)[C@H](CO)NC(=O)CNC1=O` [Chimeric CNP (A)] (H-RPQLKAPPKKSEKRQQVCFGLKLDRIGSMSGLGC-OH; disulfide 18-34; N-terminus and C-terminus assumed), for which, in data set [1] (sc, subcutaneous), the AUC(0-inf) is 24.9 ng·h/mL, the Cmax was found to be 27.9 ± 2.7 ng/mL, the Tmax is 13.3 min and the half-life came to 20.7 ± 7.5 min. In data set [1] (intravenous), the AUC(0-inf) is 107 ng·h/mL, the C0 is 1030 ± 358 ng/mL and the half-life came to 21.7 ± 6.1 min. The molecule also registered an amount remaining at 1 h, 0.5 μg/mL in data set [2] of 84.3%.

The molecule `CC[C@H](C)[C@@H]1NC(=O)[C@H](CCCNC(=N)N)NC(=O)[C@H](CC(=O)O)NC(=O)[C@H](CC(C)C)NC(=O)[C@H](CCCCN)NC(=O)[C@H](CC(C)C)NC(=O)CNC(=O)[C@H](Cc2ccccc2)NC(=O)[C@@H](N)CSSC[C@@H](C(=O)N[C@@H](C)C(=O)NCC(=O)N[C@@H](CO)C(=O)N[C@H](C(=O)N[C@@H](CC(=O)O)C(=O)N[C@@H](Cc2c[nH]cn2)C(=O)N[C@@H](CCCCN)C(=O)NCC(=O)N[C@@H](CCCCN)C(=O)N[C@@H](CCC(N)=O)C(=O)N[C@@H](CCCNC(=N)N)C(=O)N[C@@H](CCCCN)C(=O)N[C@H](C(=O)N[C@H](C(=O)N[C@@H](CC(=O)O)C(=O)N[C@@H](Cc2c[nH]cn2)C(=O)N2CCC[C@H]2C(=O)N[C@@H](CCCCN)C(=O)N[C@@H](CCCNC(=N)N)C(=O)O)C(C)C)C(C)C)C(C)C)NC(=O)CNC(=O)[C@H](CC(C)C)NC(=O)CNC(=O)[C@H](CO)NC(=O)[C@H](CCSC)NC(=O)[C@H](CO)NC(=O)CNC1=O` [Chimeric CNP (K)] (H-CFGLKLDRIGSMSGLGCAGSVDHKGKQRKVVDHPKR-OH; disulfide 1-17; N-terminus and C-terminus assumed) gave a half-life in the data set “in vivo” of 18 min.
